Where two headings read alike, the source gives them in different places. Numbered stars: 1 amine (or outer) side, 2 acyl side, 3 side chain; on linkers, the order of the positions; unused ones are H or OH. Square brackets hold non-standard residues; d marks the D form. Side chains are listed from the residue outwards. Peptide text beside a SMILES is read from it. * marks the point of attachment. ξ: configuration not given here. C20 diacid = O=C(O)CCCCCCCCCCCCCCCCCCC(=O)*; αMePhe(2-F) = C[C@](N)(Cc1ccccc1F)C(=O)O; γGlu = O=C(O)[C@H](CCC(=O)[*:2])N[*:1]; αMeY = C[C@](N)(Cc1ccc(O)cc1)C(=O)O; 4Pal = N[C@@H](Cc1ccncc1)C(=O)O; αMeL = CC(C)C[C@](C)(N)C(=O)O; Orn = NCCC[C@H](N)C(=O)O; ξIva = CCC(C)(N)C(=O)O; AEEA = NCCOCCOCC(=O)O; Aib = CC(C)(N)C(=O)O
Legend:
[1] = Pharmacokinetics in male diet-induced obese (DIO) mice; format: in vivo; details: mouse, single 200 nmol/kg SQ dose, plasma; for half-life: read-out: t½ (converted)
Method: Methods: Male DIO mice are administered a single SQ dose of 200 nmol/kg (0.98 mg/kg) of Example compounds in 40 mM Tris-HCL pH8 buffer with 0.02% PS80 at a volume of 10 mL/kg. […] Plasma concentration of Example compounds are determined by a qualified Liquid Chromatography Mass Spectrometry (LC/MS) method at Q Squared Solutions BioSciences LLC (Ithaca, NY). The Example compounds and an internal standard are extracted from 100% mouse plasma using protein precipitation followed by solid phase extraction. The intact mass of the Example compounds, which includes peptide plus acyl chain, are detected by a Q-Exactive™ Orbitrap® mass spectrometer.

[2] = molecular target: T1, hGIPR (Homo sapiens, UniProt P48546); assay: Functional cAMP assay in HEK-293 cells expressing hGIPR; format: cell-based; details: percent of maximal response to GIP(1-42)NH2
T1 construct: expressed in transfected cells; host or cells: HEK-293 clonal cell line
T1 sequence (P48546 22-466): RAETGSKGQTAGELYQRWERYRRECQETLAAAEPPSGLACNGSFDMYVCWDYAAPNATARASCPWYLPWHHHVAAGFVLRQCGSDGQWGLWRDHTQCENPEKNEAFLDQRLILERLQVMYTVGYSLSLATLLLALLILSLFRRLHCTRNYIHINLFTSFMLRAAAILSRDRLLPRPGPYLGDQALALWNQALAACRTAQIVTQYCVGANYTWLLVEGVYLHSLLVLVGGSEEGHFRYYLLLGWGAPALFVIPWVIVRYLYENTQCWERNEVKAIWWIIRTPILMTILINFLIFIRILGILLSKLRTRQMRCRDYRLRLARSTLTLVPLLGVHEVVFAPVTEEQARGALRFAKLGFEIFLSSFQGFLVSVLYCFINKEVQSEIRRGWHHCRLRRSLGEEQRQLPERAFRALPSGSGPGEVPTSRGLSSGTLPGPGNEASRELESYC
Method: (§1) Experiments also are performed under identical assay conditions with the addition of 1.0% fatty acid free, globulin free human serum albumin (Sigma Cat #A3782).
(§2) After a 30-min incubation at 37° C., the resulting increase in intracellular cAMP is quantitatively determined using a CisBio cAMP Dynamic 2 HTRF Assay Kit (62AM4PEJ). Briefly, cAMP levels within the cell are detected by adding the cAMP-d2 conjugate in cell lysis buffer (10 μL) followed by the antibody anti-cAMP-Eu^3+-Cryptate, also in cell lysis buffer (10 μL). The resulting competitive assay is incubated for at least 60 min at room temperature, and then is detected using a PerkinElmer Envision® instrument with excitation at 320 nm and emission at 665 nm and 620 nm. Envision units (emission at 665 nm/620 nm*10,000) are inversely proportional to the amount of cAMP present and are converted to nM cAMP per well using a cAMP standard curve. […] A relative EC50 value and percent top (Emax) are derived by non-linear regression analysis using the percent maximal response vs. the concentration of peptide added, fitted to a four-parameter logistic equation.

[3] = molecular target: T2, hGLP-1R (Homo sapiens, UniProt P43220); assay: Functional cAMP assay in HEK-293 cells expressing hGLP-1R; format: cell-based; details: percent of maximal response to GLP-1(7-36)NH2
T2 construct: expressed in transfected cells; host or cells: HEK-293 clonal cell line
Method: as §1, §2

T2 sequence (P43220 24-463): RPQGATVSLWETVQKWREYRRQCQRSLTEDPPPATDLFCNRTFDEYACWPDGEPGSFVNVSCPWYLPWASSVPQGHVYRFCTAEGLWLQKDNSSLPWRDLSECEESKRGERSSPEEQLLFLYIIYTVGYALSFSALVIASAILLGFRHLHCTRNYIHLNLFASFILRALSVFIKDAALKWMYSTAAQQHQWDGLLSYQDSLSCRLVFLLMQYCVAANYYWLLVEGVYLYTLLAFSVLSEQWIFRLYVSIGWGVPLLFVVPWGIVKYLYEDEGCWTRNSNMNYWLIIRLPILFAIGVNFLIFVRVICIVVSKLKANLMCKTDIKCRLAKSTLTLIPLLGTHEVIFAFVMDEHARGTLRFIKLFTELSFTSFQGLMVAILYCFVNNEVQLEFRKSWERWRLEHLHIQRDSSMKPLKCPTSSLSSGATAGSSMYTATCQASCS

For `CC[C@H](C)[C@H](NC(=O)[C@H](Cc1ccccc1)NC(=O)[C@H](C)NC(=O)C(C)(CC)NC(=O)[C@H](CCC(N)=O)NC(=O)[C@H](C)NC(=O)[C@H](CCCCNC(=O)COCCOCCNC(=O)CC[C@H](NC(=O)CCCCCCCCCCCCCCCCCCC(=O)O)C(=O)O)NC(=O)[C@H](CCCN)NC(=O)[C@H](CC(=O)O)NC(=O)[C@H](CC(C)C)NC(=O)[C@](C)(CC(C)C)NC(=O)[C@@H](NC(=O)[C@H](CO)NC(=O)[C@H](Cc1ccc(O)cc1)NC(=O)[C@H](CC(=O)O)NC(=O)[C@H](CO)NC(=O)[C@@H](NC(=O)[C@](C)(Cc1ccccc1F)NC(=O)[C@@H](NC(=O)CNC(=O)[C@H](CCC(N)=O)NC(=O)C(C)(C)NC(=O)[C@@H](N)Cc1ccc(O)cc1)[C@@H](C)O)[C@@H](C)O)[C@@H](C)CC)C(=O)N[C@@H](CCC(=O)O)C(=O)N[C@@](C)(Cc1ccc(O)cc1)C(=O)N[C@@H](CC(C)C)C(=O)N[C@@H](CC(C)C)C(=O)N[C@@H](CCC(=O)O)C(=O)NCC(=O)NCC(=O)N1CCC[C@H]1C(=O)N[C@@H](CO)C(=O)N[C@@H](CO)C(=O)NCC(=O)N[C@@H](CCC(=O)O)C(=O)N1CCC[C@H]1C(=O)N1CCC[C@H]1C(=O)N1CCC[C@H]1C(=O)N[C@@H](CO)C(N)=O` (stereo partly shown) [Example 2] (H-Y[Aib]QGT[αMePhe(2-F)]TSDYSI[αMeL]LD[Orn]K([AEEA-γGlu-C20 diacid])AQ[ξIva]AFIE[αMeY]LLEGGPSSGEPPPS-NH2; N-terminus assumed), the AUC(0-inf) ([1]; subcutaneous) was 42.5 µM·h, the CL/F ([1]; subcutaneous) was 4.7 mL/h/kg and the Cmax ([1]; subcutaneous) was 1240 nM. The Tmax ([1]; subcutaneous) was 12 h, the half-life ([1]; subcutaneous) was 18 h and the Emax ([2]; HEK293, 0.1% bovine casein and 1.0% human serum albumin, read-out: hGIPR Emax) was 99 ± 2%. For the same molecule, the Emax ([2]; HEK293, 0.1% bovine casein, read-out: hGIPR Emax) was 101 ± 2%.
With `CC[C@H](C)[C@H](NC(=O)[C@H](Cc1ccccc1)NC(=O)[C@H](C)NC(=O)[C@H](Cc1ccncc1)NC(=O)[C@H](CCC(N)=O)NC(=O)[C@H](C)NC(=O)[C@H](CCCCNC(=O)COCCOCCNC(=O)CC[C@H](NC(=O)CCCCCCCCCCCCCCCCCCC(=O)O)C(=O)O)NC(=O)[C@H](CCCN)NC(=O)[C@H](CC(=O)O)NC(=O)[C@H](CC(C)C)NC(=O)[C@H](CC(C)C)NC(=O)[C@@H](NC(=O)[C@H](CO)NC(=O)[C@H](Cc1ccc(O)cc1)NC(=O)[C@H](CC(=O)O)NC(=O)[C@H](CO)NC(=O)[C@@H](NC(=O)[C@](C)(Cc1ccccc1F)NC(=O)[C@@H](NC(=O)CNC(=O)[C@H](CCC(N)=O)NC(=O)C(C)(C)NC(=O)[C@@H](N)Cc1ccc(O)cc1)[C@@H](C)O)[C@@H](C)O)[C@@H](C)CC)C(=O)N[C@@H](CCC(=O)O)C(=O)N[C@@H](Cc1ccc(O)cc1)C(=O)N[C@@H](CC(C)C)C(=O)N[C@@H](CC(C)C)C(=O)N[C@@H](CCC(=O)O)C(=O)NCC(=O)NCC(=O)N1CCC[C@H]1C(=O)N[C@@H](CO)C(=O)N[C@@H](CO)C(=O)NCC(=O)N[C@@H](CCC(=O)O)C(=O)N1CCC[C@H]1C(=O)N1CCC[C@H]1C(=O)N1CCC[C@H]1C(=O)N[C@@H](CCC(=O)O)C(N)=O` [Example 1] (H-Y[Aib]QGT[αMePhe(2-F)]TSDYSILLD[Orn]K([AEEA-γGlu-C20 diacid])AQ[4Pal]AFIEYLLEGGPSSGEPPPE-NH2) the AUC(0-inf) ([1]; in vivo) was 55.6 µM·h, the CL/F ([1]; in vivo) was 3.6 mL/h/kg and the Cmax ([1]; in vivo) was 817 nM. The Tmax ([1]; in vivo) was 12 h, the half-life ([1]; in vivo) was 38 h and the Emax ([3]; HEK293, read-out: hGLP-1R Emax, 0.1% bovine casein and 1.0% human serum albumin) was 102 ± 4%. The Emax ([3]; HEK293, read-out: hGLP-1R Emax, 0.1% bovine casein) was 106 ± 4%, the Emax ([2]; HEK293, read-out: hGIPR Emax, 0.1% bovine casein and 1.0% human serum albumin) was 100 ± 3% and the Emax ([2]; HEK293, read-out: hGIPR Emax, 0.1% bovine casein) was 102 ± 2%.
